ChEMBL document CHEMBL1136511, “Nonbenzamidine tetrazole derivatives as factor Xa inhibitors” (Bioorg Med Chem Lett, 2003)

Assays:
[1] = target: Coagulation factor X (Homo sapiens, UniProt P00742); assay: Inhibition of human purified factor Xa
[2] = target: Prothrombin (Homo sapiens, UniProt P00734); assay: Inhibitory constant against thrombin using human purified enzymes
[3] = target: Serine protease 1 (Homo sapiens, UniProt P07477); assay: Inhibitory constant against trypsin using human purified enzymes
[4] = Clearance after intravenous administration of 0.5 mg/kg in dog was determined; type: ADME, organism-based, Canis lupus familiaris; set-up: dose 0.5 mg/kg, route intravenous; details: in vivo
[5] = Clearance after peroral administration of 0.2 mg/kg in dog was determined; type: ADME, organism-based, Canis lupus familiaris; set-up: dose 0.2 mg/kg, route oral; details: in vivo, po
[6] = Half-life period after peroral administration of 0.2 mg/kg in dog was determined; type: ADME, organism-based, Canis lupus familiaris; set-up: dose 0.2 mg/kg, route oral; details: in vivo, po
[7] = species on record: Oryctolagus cuniculus; assay: Antithrombotic efficacy in rabbit A-V shunt model was determined; type: functional
[8] = Half-life period after intravenous administration of 0.5 mg/kg in dog was determined; type: ADME, organism-based, Canis lupus familiaris; set-up: dose 0.5 mg/kg, route intravenous; details: in vivo
[9] = Clearance after intravenous administration of 1.0 mg/kg in dog was determined; type: ADME, organism-based, Canis lupus familiaris; set-up: dose 1 mg/kg, route intravenous; details: in vivo
[10] = Half-life period after intravenous administration of 1.0 mg/kg in dog was determined; type: ADME, organism-based, Canis lupus familiaris; set-up: dose 1 mg/kg, route intravenous; details: in vivo

Serine protease 1, sequence (P07477 whole entry): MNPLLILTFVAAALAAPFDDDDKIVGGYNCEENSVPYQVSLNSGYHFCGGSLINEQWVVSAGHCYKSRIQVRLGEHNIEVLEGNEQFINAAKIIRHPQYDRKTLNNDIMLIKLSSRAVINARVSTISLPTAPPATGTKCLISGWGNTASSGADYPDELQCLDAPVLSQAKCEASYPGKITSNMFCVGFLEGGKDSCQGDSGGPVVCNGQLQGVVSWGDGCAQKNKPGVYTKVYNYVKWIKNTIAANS
Coagulation factor X, sequence (P00742 41-179 limits assumed): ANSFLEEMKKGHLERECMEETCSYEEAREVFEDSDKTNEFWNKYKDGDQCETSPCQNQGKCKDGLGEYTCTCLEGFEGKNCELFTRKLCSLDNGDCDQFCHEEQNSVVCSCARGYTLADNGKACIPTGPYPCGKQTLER
Coagulation factor X, sequence (P00742 235-488 limits assumed): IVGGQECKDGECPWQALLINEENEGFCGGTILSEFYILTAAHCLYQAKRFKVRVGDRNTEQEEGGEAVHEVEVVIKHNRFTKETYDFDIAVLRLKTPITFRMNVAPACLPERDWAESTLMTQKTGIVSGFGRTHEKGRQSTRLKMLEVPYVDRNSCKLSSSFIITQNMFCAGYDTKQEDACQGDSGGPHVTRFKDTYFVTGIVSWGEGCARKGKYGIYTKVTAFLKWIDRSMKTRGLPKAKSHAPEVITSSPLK

SMILES	Ki [1] [µM]	Ki [2] [µM]	Ki [3] [µM]	also measured
Nc1noc2ccc(-n3nnnc3C(=O)Nc3ccc(-c4ccccc4S(N)(=O)=O)cc3F)cc12	0.00035	0.6	> 5.2	clearance [4]: 5 mL/min/kg; CL/F [5]: 5 mL/min/kg; half-life [6]: 3.1 h; ID50 [7]: 5.8 µM/h/kg; half-life [8]: 3.1 h
Nc1cc(-n2nnnc2C(=O)Nc2ccc(-c3ccccc3S(N)(=O)=O)cc2F)ccc1Cl	0.0012	–	–	–
Nc1noc2ccc(-n3nnnc3C(=O)Nc3ccc(-c4ccccc4S(N)(=O)=O)cc3)cc12	0.00098	1.5	> 1.6	–
COc1ccc(-n2nnnc2C(=O)Nc2ccc(-c3ccccc3S(N)(=O)=O)cc2)cc1	0.008	10	> 1.6	–
Nc1noc2ccc(-n3nnnc3C(=O)Nc3ccc(C(=O)N4CCCC4)cc3F)cc12	0.0029	> 21	> 1.6	–
Nc1cc(-n2nnnc2C(=O)Nc2ccc(-c3ccccc3S(N)(=O)=O)cc2Cl)ccc1Cl	0.0033	1.6	> 1.6	–
CS(=O)(=O)c1ccccc1-c1ccc(NC(=O)c2nnnn2-c2ccc3onc(N)c3c2)c(F)c1	0.00039	0.4	> 1.6	–

More lines, main results first:

Ki [1] [µM]	Ki [2] [µM]	Ki [3] [µM]	SMILES	also measured
0.0054	1.6	> 1.6	Nc1cc(-n2nnnc2C(=O)Nc2ccc(-c3ccccc3S(N)(=O)=O)cc2)ccc1Cl	–
–	4	> 1.6	COc1ccc(-n2nnnc2C(=O)Nc2ccc(-c3ccccc3S(N)(=O)=O)cc2)cc1N	–
0.003	1.2	> 1.6	Nc1cc(-n2nnnc2C(=O)Nc2ccc(C(=O)N3CCCC3)cc2F)ccc1Cl	–
0.008	7.9	> 1.6	Nc1cc(-n2nnnc2C(=O)Nc2ccc(-c3ccccc3S(N)(=O)=O)cn2)ccc1Cl	–
0.013	> 21	0.069	NCc1cccc(-n2nnnc2C(=O)Nc2ccc(-c3ccccc3S(N)(=O)=O)cc2)c1	–
–	–	0.0064	N=C(N)c1cccc(-n2nnnc2C(=O)Nc2ccc(-c3ccccc3S(N)(=O)=O)cc2)c1	clearance [9]: 10.3 mL/min/kg; half-life [10]: 0.65 h; ID50 [7]: 0.13 µM/h/kg
